Where a name gives a salt, the structure may show the parent alone. Read-outs that look alike come from different tables or passages of the source.
Assays:
[1] = test system: xanthine oxidase; test: Substrate specificity (formed hydrogen peroxide, Method II); format: biochemical, Enterobacter cloacae; conditions: for Relative activity: activity on xanthine defined as 100, 0.1 ml of 5 mM substrate, 0.25 U/ml enzyme, pH 7.3, 37° C.; for activity of xanthine oxidase on substrate (in words): conclusion from Table 1
Description: After completion of the reaction, the absorbancy of the reaction solution is measured at 500 nm. Molecular extinction coefficient of quinoneimine pigment formed in the reaction is 5.33×10^3 (Clinical Chemistry 20, 470, 1974). When a unit of enzyme activity is defined as the activity of enzyme which forms 1 μmol of hydrogen peroxide in one minute at 37° C. and at a pH of 7.3, the unit (U) of xanthine oxidase is as follows:
The same procedures as in Method II are repeated except that 0.25 U/ml xanthine oxidase and 0.1 ml of 5 mM solutions of various substrates are used, and the amount of the formed hydrogen peroxide is determined.

[2] = test system: xanthine oxidase; test: Inhibition of xanthine oxidase (Method I); format: biochemical, Enterobacter cloacae; conditions: for inhibition of xanthine oxidase (in words): conclusion from Table 2
Description: The reaction is carried out at 37° C. for ten minutes. […] The thus obtained value is defined as OD283. This value corresponds to the amount of uric acid formed.
Since the reaction product, uric acid has a maximum absorption at 283 nm in acidic region and the molecular extinction coefficient is 1.238×10^4 (Analytical Biochemistry 38, 65, 1970), the unit (U) of xanthine oxidase is as follows:
One unit of enzyme activity is defined as the activity of enzyme which forms 1 μmol of uric acid in one minute at 37° C. and at a pH of 7.3.
Xanthine oxidase activity is determined in the same manner as in Method I except that 0.25 U/ml xanthine oxidase solution is used and various enzyme inhibitors are added.

[3] = test system: xanthine oxidase; test: Experiment 3: electron acceptor of the present enzyme; format: biochemical, Enterobacter cloacae
Description: 0.15 ml of 10 mM xanthine aqueous solution, 1.0 ml of 100 mM tris-hydrochloride buffer (pH 7.3), 0.65 ml of water and 1 ml of various electron acceptors shown in Table 3 are mixed. The mixture and a solution of xanthine oxidase obtained in Example 1 are incubated at 37° C. and then nitrogen gas is introduced into the mixture and the enzyme solution for 3~4 minutes to remove dissolved oxygen.
Then, 0.2 ml of 0.25 U/ml xanthine oxidase is added to 2.8 ml of the reaction mixture to initiate the reaction and the absorbancy is measured every 15 seconds. The values obtained during one minutes of 30 to 90 seconds after the addition of xanthine oxidase is used as data.
When oxygen is used as an acceptor, nitrogen gas is not introduced into the mixture and the reaction product, uric acid obtained using dissolved oxygen is determined by measuring the absorbancy at 295 nm.

[4] = test system: xanthine oxidase derived from milk; conditions: ferricyanide 100; cited from earlier work
[5] = test system: xanthine oxidase; test: Examples 2 and 3: xanthine oxidase activity with nucleic acid compound added to the medium; format: cell-based, Enterobacter cloacae KY 3066
Description: In this example, 40 ml of the medium (pH 7.2) containing 0.5 g/dl yeast extract, 0.5 g/dl corn steep liquor, 0.1 g/dl peptone, 0.05 g/dl KH2 PO4, 0.1 g/dl K2 HPO4, […] and is sterilized at 120° C. for 15 minutes. One loopful of the seed culture of Enterobacter cloacae KY 3066 is inoculated into the medium and culturing is carried out at 30° C. for 48 hours.
The microbial cells are recovered from the culture liquor by centrifugation and are suspended in 20 ml of the buffer. The suspension is subjected to ultrasonic disintegration.

[6] = test system: xanthine oxidase; format: biochemical, Enterobacter cloacae
Description: As a coloring solution, 0.1 M tris-hydrochloride buffer (pH 7.3) containing 10 mmol/l 4-aminoantipyrine, 10 mmol/l phenol and 490 U/100 ml peroxidase is prepared. […] The absorbancy of the reaction solution is measured at 500 nm.

[7] = test system: xanthine oxidase
Description: The coloring solution is prepared by adding 445 U/100 ml peroxidase to 0.1 M tris-hydrochloride buffer (pH 7.3) containing 10 mmol/l 4-aminoantipyrine and 10 mmol/l phenol.
In this experiment, 40 ml of medium (pH 7.2) comprising hypoxanthine having concentrations indicated in Table 4, 0.5 g/dl yeast extract, 0.5 g/dl corn steep liquor, 0.1 g/dl peptone, 0.05 g/dl KH2 PO4, 0.1 g/dl K2 HPO4 and 0.05 g/dl MgSO4.7H2 O is poured into Sakaguchi flask and is sterilized at 120° C. for 15 minutes.
One loopful of the seed culture of Enterobacter cloacae KY 3066, FERM P 4077, NRRL B-11155 in a slant is inoculated into the medium and culturing is carried out with shaking at 30° C. for 48 hours.
After completion of the culturing, the culture liquor is subjected to centrifugation at 10,000 r.p.m for 15 minutes (hereinafter centrifugation is carried out under this condition) to obtain microbial cells. The thus obtained cells are suspended in 20 ml of 50 mM tris-hydrochloride buffer (pH 8.0) and then disrupted for ten minutes in an ultrasonic disintegration (Ultrasonic Generator KMS-250 type, made by Kubota Seisaku-sho). The resulting disrupted cell suspension is centrifuged to obtain a supernatant. Xanthine oxidase activity of the supernatant is determined according to the Determination Method II and the results are shown in Table 4 below.

[8] = pH 7.3
Description: Hypoxanthine is oxidized by the action of the present enzyme and the formed hydrogen peroxide is reacted with a coloring reagent.
The enzyme-containing solution is subjected to reaction at 37° C. and the absorbancy of the reaction solution colored by the formation of quinoneimine derived from hydrogen peroxide is measured at 500 nm at regular intervals.
The solution is subjected to reaction at 37° C. and the absorbancy of the reaction solution is measured at 293 nm at regular intervals.

Molecule: Oc1ncc2[nH]cnc2n1 [2-Hydroxypurine]
- Relative activity [1]: 88.5%
- activity of xanthine oxidase on substrate (in words) [1]: strong activity

Molecule: Sc1ncnc2nc[nH]c12 [6-mercaptopurine]
- Relative activity [1]: 4.4%

Molecule: Nc1ncnc2nc[nH]c12 [Adenine]
- Relative activity [1]: 0%

Molecule: Nc1ncnc2c1ncn2[C@@H]1O[C@H](CO)[C@@H](O)[C@H]1O [Adenosine]
- Relative activity [1]: 2.5%

Molecule: O=[N+]([O-])[O-].[Ag+] [AgNO3]
- inhibition of xanthine oxidase (in words) [2]: inhibitors of xanthine oxidase
- Inhibition rate ([2]; inhibitor 1 × 10^-4 M): 97.8%
- Inhibition rate ([2]; inhibitor 1 × 10^-5 M): 98.2%
- Inhibition rate ([2]; inhibitor 1 × 10^-6 M): 54.8%
- Inhibition rate ([2]; inhibitor 1 × 10^-7 M): 0%

Molecule: O.O.[Cl][Cu][Cl] [CuCl2.2H2 O]
- inhibition of xanthine oxidase (in words) [2]: inhibitors of xanthine oxidase
- Inhibition rate ([2]; inhibitor 1 × 10^-4 M): 96.3%
- Inhibition rate ([2]; inhibitor 1 × 10^-5 M): 79.6%
- Inhibition rate ([2]; inhibitor 1 × 10^-6 M): 12.9%
- Inhibition rate ([2]; inhibitor 1 × 10^-7 M): 0%

Molecule: [Cl][Cu] [CuCl]
- inhibition of xanthine oxidase (in words) [2]: inhibitors of xanthine oxidase
- Inhibition rate ([2]; inhibitor 1 × 10^-4 M): 90.5%
- Inhibition rate ([2]; inhibitor 1 × 10^-5 M): 53.5%
- Inhibition rate ([2]; inhibitor 1 × 10^-6 M): 2.2%

Molecule: O=C1C(Cl)=CC(=Nc2ccc(O)cc2)C=C1Cl [DCPIP, 2,6-sodium salt of dichlorphenol indophenol]
- Relative activity ([3]; acceptor 0.04 mM, 600 nm): 9.2%
- Relative activity [4]: 35

Molecule: Nc1nc2c(ncn2[C@@H]2O[C@H](COP(=O)(O)O)[C@@H](O)[C@H]2O)c(=O)[nH]1 [Disodium 2,5'-guaninate]
- Xanthine oxidase ([5]; amount of addition 0.81 g/dl): 0.30 U/ml

Molecule: O.O.O.O.O.O.O.O=S(=O)([O-])[O-].[Fe+2] [FeSO4.7H2 O]
- inhibition of xanthine oxidase (in words) [2]: inhibitors of xanthine oxidase
- Inhibition rate ([2]; inhibitor 1 × 10^-4 M): 92.3%
- Inhibition rate ([2]; inhibitor 1 × 10^-5 M): 0%

Molecule: Nc1nc2nc[nH]c2c(=O)[nH]1 [Guanine]
- Relative activity [1]: 53.3%
- activity of xanthine oxidase on substrate (in words) [1]: strong activity
- Xanthine oxidase ([5]; amount of addition 0.3 g/dl): 0.14 U/ml

Molecule: Nc1nc2c(ncn2[C@@H]2O[C@H](CO)[C@@H](O)[C@H]2O)c(=O)[nH]1 [Guanosine]
- Relative activity [1]: 0%

Molecule: O=c1[nH]cnc2nc[nH]c12 [Hypoxanthine]
- Relative activity [1]: 92.3%
- activity of xanthine oxidase on substrate (in words) [1]: strong activity
- [B]/[A] (formed hydrogen peroxide / substrate) [6]: 1.80
- Amount of formed hydrogen peroxide [B] ([6]; pH 7.3): 0.27 µmol
- Xanthine oxidase activity ([7]; hypoxanthine 0.1 g/dl): 20.0 U/dl
- Xanthine oxidase activity ([7]; hypoxanthine 0.2 g/dl): 31.2 U/dl
- Xanthine oxidase activity ([7]; hypoxanthine 0.3 g/dl): 47.3 U/dl
- Xanthine oxidase activity ([7]; hypoxanthine 0.5 g/dl): 48.4 U/dl
- Xanthine oxidase activity ([7]; hypoxanthine 1.0 g/dl): 55.2 U/dl
- Xanthine oxidase activity ([7]; hypoxanthine 3.0 g/dl): 49.0 U/dl

Molecule: OC[C@H]1O[C@@H](n2cnc3c(O)ncnc32)[C@H](O)[C@@H]1O [Inosine]
- Relative activity [1]: 0%
- Xanthine oxidase ([5]; amount of addition 0.54 g/dl): 0.20 U/ml

Molecule: O=C1O[C@H]([C@@H](O)CO)C(O)=C1O [L-ascorbic acid]
- inhibition of xanthine oxidase (in words) [2]: inhibitors of xanthine oxidase
- Inhibition rate ([2]; inhibitor 1 × 10^-3 M): 88.9%
- Inhibition rate ([2]; inhibitor 1 × 10^-4 M): 82.7%
- Inhibition rate ([2]; inhibitor 1 × 10^-5 M): 61.7%
- Inhibition rate ([2]; inhibitor 1 × 10^-6 M): 0%

Molecule: NC(=O)C1=CN([C@@H]2O[C@H](COP(=O)(O)OP(=O)(O)OC[C@H]3O[C@@H](n4cnc5c(N)ncnc54)[C@H](O)[C@@H]3O)[C@@H](O)[C@H]2O)C=CC1 [NADH]
- Relative activity [1]: 0%

Molecule: NC(=O)c1ccc[n+]([C@@H]2O[C@H](COP(=O)([O-])OP(=O)(O)OC[C@H]3O[C@@H](n4cnc5c(N)ncnc54)[C@H](OP(=O)(O)O)[C@@H]3O)[C@@H](O)[C@H]2O)c1 [NADP]
- Relative activity ([3]; acceptor 0.1 mM, 340 nm): 0%

Molecule: NC(=O)c1ccc[n+]([C@@H]2O[C@H](COP(=O)([O-])OP(=O)(O)OC[C@H]3O[C@@H](n4cnc5c(N)ncnc54)[C@H](O)[C@@H]3O)[C@@H](O)[C@H]2O)c1 [NAD]
- Relative activity ([3]; acceptor 0.1 mM, 340 nm): 0%
- Relative activity [4]: < 1.3

Molecule: O=O [Oxygen]
- acceptor of the present enzyme (in words) [3]: best acceptor
- Relative activity ([3]; dissolved oxygen, 295 nm): 100%
- Relative activity [4]: 83

Molecule: O=C([O-])c1cc[c]([Hg][Cl])cc1.[Na+] [PCMB, Sodium salt of pchloromercuribenzoic acid]
- inhibition of xanthine oxidase (in words) [2]: inhibitors of xanthine oxidase
- Inhibition rate ([2]; inhibitor 1 × 10^-4 M): 76.6%
- Inhibition rate ([2]; inhibitor 1 × 10^-5 M): 34.7%
- Inhibition rate ([2]; inhibitor 1 × 10^-6 M): 0%

Molecule: c1ncc2[nH]cnc2n1 [Purine]
- Relative activity [1]: 23.3%
- activity of xanthine oxidase on substrate (in words) [1]: strong activity

Molecule: Cn1cnc2c1c(=O)[nH]c(=O)n2C [Theobromine]
- Relative activity [1]: 0%

Molecule: Cn1c(=O)c2[nH]cnc2n(C)c1=O [Theophylline]
- Relative activity [1]: 0%

Molecule: O=c1[nH]c(=O)c2[nH]c(=O)[nH]c2[nH]1 [Uric acid]
- Relative activity [1]: 0%

Molecule: O=c1[nH]c(=O)c2[nH]cnc2[nH]1 [Xanthine]
- Relative activity [1]: 100%
- activity of xanthine oxidase on substrate (in words) [1]: strong activity
- Amount of formed hydrogen peroxide [B] ([6]; substrate 0.15 μmol, 0.93 U xanthine oxidase, pH 7.3, 37° C., 20 minutes): 0.14 µmol
- [B]/[A] (formed hydrogen peroxide / substrate) ([6]; substrate 0.15 μmol, 37° C., 20 minutes): 0.93
- Xanthine oxidase ([5]; amount of addition 0.3 g/dl): 0.13 U/ml

Molecule: O=c1[nH]c(=O)c2ncn([C@@H]3O[C@H](CO)[C@@H](O)[C@H]3O)c2[nH]1 [Xanthosine]
- Relative activity [1]: 0%
- Xanthine oxidase ([5]; amount of addition 0.57 g/dl): 0.20 U/ml

Molecule: Cytochrome C: electron acceptor
- Relative activity ([3]; acceptor 0.1 mM, 550 nm): 0%

Molecule: xanthine oxidase derived from milk: xanthine oxidase derived from milk (product of Boehringer Mannheim Co.)
- stability of pigment (in words) [8]: then decrease in spite of the continuous formation of uric acid

Source: patent US4341868A, “Method and test composition for the determination of the substrate for xanthine oxidase” (Kyowa Hakko Kogyo Co., Ltd., priority 1978, dated 1982)
